Values of other authors as cited in US11185594B2, “(Anti-HER2 antibody)-drug conjugate” (DAIICHI SANKYO COMPANY, LIMITED, priority 2014, dated 2021).

What was measured:
human tumor = human tumor subcutaneously transplanted mouse model
topoisomerase I = target: T1, topoisomerase I (Homo sapiens, UniProt P11387); conditions: compared with SN-38 and topotecan
T1 sequence (P11387 1-765): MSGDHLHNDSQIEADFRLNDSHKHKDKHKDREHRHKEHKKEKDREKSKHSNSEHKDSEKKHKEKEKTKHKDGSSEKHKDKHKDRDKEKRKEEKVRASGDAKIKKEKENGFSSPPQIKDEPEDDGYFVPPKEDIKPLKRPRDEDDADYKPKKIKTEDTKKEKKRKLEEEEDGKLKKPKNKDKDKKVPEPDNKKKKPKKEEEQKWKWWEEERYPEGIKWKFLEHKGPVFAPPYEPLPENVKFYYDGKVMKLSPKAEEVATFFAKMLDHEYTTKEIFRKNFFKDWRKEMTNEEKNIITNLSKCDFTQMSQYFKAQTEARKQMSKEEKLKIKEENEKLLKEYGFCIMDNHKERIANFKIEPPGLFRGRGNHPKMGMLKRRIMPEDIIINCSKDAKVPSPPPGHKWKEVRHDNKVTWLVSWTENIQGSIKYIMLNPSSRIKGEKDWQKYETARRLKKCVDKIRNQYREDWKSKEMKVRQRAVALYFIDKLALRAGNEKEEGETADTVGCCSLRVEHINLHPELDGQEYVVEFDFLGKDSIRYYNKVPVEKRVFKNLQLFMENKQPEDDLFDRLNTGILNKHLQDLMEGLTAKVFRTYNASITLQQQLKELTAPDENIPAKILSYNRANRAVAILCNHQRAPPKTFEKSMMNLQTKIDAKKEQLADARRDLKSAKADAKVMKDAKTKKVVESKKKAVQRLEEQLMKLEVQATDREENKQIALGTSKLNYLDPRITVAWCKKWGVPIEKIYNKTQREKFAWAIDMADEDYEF

## CC[C@@]1(O)C(=O)OCc2c1cc1n(c2=O)Cc2c-1nc1cc(F)c(C)c3c1c2[C@@H](N)CC3 [exatecan, (1S,9S)-1-amino-9-ethyl-5-fluoro-2,3-dihydro-9-hydroxy-4-methyl-1H,12H-benzo[de]pyrano[3′,4′:6,7]indolizino[1,2-b]quinoline-10,13(9H,15H)-dione]
Various cancer cells; against various cancer cells
  in vitro cytocidal activity: higher in vitro cytocidal activity was confirmed
Various cancer cells; cancer cells resistant to SN-38 or the like due to expression of P-glycoprotein
  effect against resistant cancer cells: confirmed to have the effect
Human tumor
  antitumor effect: potent antitumor effect
Topoisomerase I
  inhibitory activity on topoisomerase I: higher than SN-38
